Data published in ChEMBL document CHEMBL5584333, “Evo312: An Evodiamine Analog and Novel PKCβI Inhibitor with Potent Antitumor Activity in Gemcitabine-Resistant Pancreatic Cancer” (J Med Chem, 2024).
The source made the active and inactive calls. The rule behind the calls is not given here.

Experiments:
PANC-1 [1] = experiment: Cytotoxicity against human PANC-1 cells assessed as inhibition of cell growth incubated for 72 hrs by SRB assay; format: functional, cell-based; details: PANC-1, 72 h
[2] = Cytotoxicity against human MRC5 cells assessed as inhibition of cell growth incubated for 72 hrs by SRB assay; format: toxicity, cell-based
[3] = Cytotoxicity against HPDE6c7 cells assessed as inhibition of cell growth incubated for 72 hrs by SRB assay; format: toxicity, cell-based; details: human
[4] = tested on: Gemcitabine-resistant PANC-1; experiment: Cytotoxicity against human Gemcitabine-resistant PANC-1 cells assessed as inhibition of cell growth incubated for 72 hrs by SRB assay; format: functional, cell-based; details: Gemcitabine-resistant PANC-1, 72 h
[5] = biological target: T1, Protein kinase C beta type (Homo sapiens, UniProt P05771); experiment: Inhibition of recombinant full length N-terminal GST-tagged human PKCbeta1 expressed in baculovirus infected Sf9 insect cells using ERMRPRKRQGSVRRRV as substrate incubated for 60 mins in presence of ATP by ADP-glo reagent based luminometric analysis
[6] = biological target: T1, Protein kinase C beta type; experiment: Binding affinity to PKCbeta1 in human Gemcitabine-resistant PANC-1 cells at 10 uM incubated for 1 hrs by streptavidin-biotin pull down assay; format: cell-based
Target sequence in this assay (P05771 2-671 limits assumed): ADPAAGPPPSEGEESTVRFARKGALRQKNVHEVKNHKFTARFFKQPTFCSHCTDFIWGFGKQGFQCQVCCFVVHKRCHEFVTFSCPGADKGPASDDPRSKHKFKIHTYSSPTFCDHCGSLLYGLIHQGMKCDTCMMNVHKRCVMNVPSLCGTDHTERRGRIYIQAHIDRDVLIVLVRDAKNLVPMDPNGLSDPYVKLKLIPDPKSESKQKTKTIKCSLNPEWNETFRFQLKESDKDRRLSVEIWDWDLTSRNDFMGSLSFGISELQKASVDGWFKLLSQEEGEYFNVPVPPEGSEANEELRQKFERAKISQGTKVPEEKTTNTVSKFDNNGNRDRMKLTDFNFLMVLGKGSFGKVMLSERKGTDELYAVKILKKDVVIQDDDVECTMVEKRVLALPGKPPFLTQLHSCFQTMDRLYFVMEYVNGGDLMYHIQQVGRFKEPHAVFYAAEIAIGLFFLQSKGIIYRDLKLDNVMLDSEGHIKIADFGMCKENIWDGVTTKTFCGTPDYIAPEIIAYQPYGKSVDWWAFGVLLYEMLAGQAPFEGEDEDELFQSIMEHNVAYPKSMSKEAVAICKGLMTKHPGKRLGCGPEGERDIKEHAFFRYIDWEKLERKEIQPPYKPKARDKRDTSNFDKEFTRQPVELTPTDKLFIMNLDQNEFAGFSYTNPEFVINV

[7] = Selectivity ratio of IC50 for cytotoxicity against human Gemcitabine-resistant PANC-1 cells assessed as inhibition of cell growth to IC50 for cytotoxicity against human PANC-1 cells assessed as inhibition of cell growth; format: functional
PANC-1 [8] = experiment: Antiproliferative activity against human PANC-1 cells transfected with Myc-DDK tagged pCMV6-PKCbeta1 assessed as reduction in cell viability at 1.25 to 40 uM incubated for 72 hrs by MTT assay; format: functional, cell-based; details: dose 1.25-40 µM
PANC-1 [9] = experiment: Antiproliferative activity against human PANC-1 cells transfected with PKCbeta1 siRNA assessed as reduction in cell viability at 1.25 to 40 uM incubated for 72 hrs by MTT assay; format: functional, cell-based; details: dose 1.25-40 µM
[10] = tested on: Gemcitabine-resistant PANC-1; experiment: Antitumor activity against human Gemcitabine-resistant PANC-1 cells xenografted in male BALB/c nude mouse assessed as reduction in tumor growth at 10 mg/kg, ip administered three times in a week for 20 days relative to control; format: functional; design: scale not given: the % may be the effect or the level left; details: time 20 day
[11] = tested on: Gemcitabine-resistant PANC-1; experiment: Antitumor activity against human Gemcitabine-resistant PANC-1 cells xenografted in male BALB/c nude mouse assessed as reduction in tumor growth at 5 mg/kg, ip administered three times in a week for 20 days; format: functional, organism-based; details: time 20.0 day

SMILES | IC50 (PANC-1 [1]) [µM] | IC50 at 72 h [2] [µM] | also measured
Cc1ccc2[nH]c3c(c2c1)CCN1C(=O)c2ccccc2N(C)[C@H]31 | 29.2 | > 50 | 
CN1c2ccccc2C(=O)N2CCc3c([nH]c4ccc(Cl)cc34)[C@H]21 | 31.6 | 9.42 | 
C=CCOc1ccc2[nH]c3c(c2c1)CCN1C(=O)c2ccccc2N(C)[C@H]31 | 6.7 | > 50 | 
CN1c2ccccc2C(=O)N2CCc3c([nH]c4ccc(O)cc34)[C@H]21 | ≤ 0.05 | > 50 | IC50 at 72 h [3]: 0.17 µM; IC50 [4]: 0.25 µM; inhibition [5]: inactive
CN1c2ccccc2C(=O)N2CCc3c(n(Cc4ccc(Cl)cc4)c4ccccc34)[C@H]21 | 44 | > 50 | 
CN1c2ccccc2C(=O)N2CCc3c([nH]c4ccccc34)[C@H]21 | 6.59 | > 50 | IC50 [5]: 0.151 µM
O=C1c2ccccc2N[C@@H]2c3[nH]c4ccccc4c3CCN12 | > 50 | > 50 | 
CN1c2ccccc2C(=O)N2CCc3c([nH]c4ccc([N+](=O)[O-])cc34)[C@H]21 | 4.45 | > 50 | 
COc1cccc2c1C(=O)N1CCc3c([nH]c4ccccc34)[C@H]1N2C | 12.6 | 12.7 | 
COc1ccc2c(c1)C(=O)N1CCc3c([nH]c4ccccc34)[C@H]1N2C | 1.05 | 3.33 | 
CN1c2cccc(Cl)c2C(=O)N2CCc3c([nH]c4ccccc34)[C@H]21 | 8.8 | < 0.4 | 
CC(=O)Oc1ccc2c(c1)c1c(n2Cc2cn(CCNC(=O)CCCC[C@@H]3SC[C@@H]4NC(=O)N[C@@H]43)nn2)C2N(CC1)C(=O)c1ccccc1N2C (some centres not stated) |  |  | Activity [6]: Active
CN1c2ccccc2C(=O)N2CCc3c(n(C(=O)c4ccccc4)c4ccccc34)[C@H]21 | > 50 | > 50 | 
CCCOc1ccc2[nH]c3c(c2c1)CCN1C(=O)c2ccccc2N(C)[C@H]31 | 19 | > 50 | 
O=C1c2ccccc2N(C(=O)C2CCCCC2)C2c3[nH]c4ccccc4c3CCN12 (single isomer, unassigned) | > 50 | > 50 | 
CN1c2ccccc2C(=O)N2CCc3c(n(C)c4ccccc34)[C@H]21 | > 50 | > 50 | 
COc1cc([C@@H]2c3cc4c(cc3[C@@H](O[C@@H]3O[C@@H]5CO[C@@H](C)O[C@H]5[C@H](O)[C@H]3O)[C@H]3COC(=O)[C@H]23)OCO4)cc(OC)c1O [ETOPOSIDE] | 18.3 | > 20 | 
COc1ccc(Cn2c3c(c4ccccc42)CCN2C(=O)c4ccccc4N(C)[C@H]32)cc1 | 47.2 | > 50 | 
Cn1cc(C2=C(c3cn(C4CCN(Cc5ccccn5)CC4)c4ccccc34)C(=O)NC2=O)c2ccccc21 [ENZASTAURIN] | 6.59 |  | IC50 at 72 h [3]: 1.33 µM; IC50 [4]: 2.12 µM
O=C1c2ccccc2N(Cc2ccc(C(F)(F)F)cc2)[C@@H]2c3[nH]c4ccccc4c3CCN12 | 31.5 | 50 | 
CN1c2cc(Cl)ccc2C(=O)N2CCc3c([nH]c4ccccc34)[C@H]21 | > 50 | > 50 | 
CN1c2ccc(F)cc2C(=O)N2CCc3c([nH]c4ccccc34)[C@H]21 | < 0.4 | < 0.4 | 

SMILES | IC50 (PANC-1 [1]) [µM] | IC50 at 72 h [2] [µM] | also measured
CCCn1c2c(c3ccccc31)CCN1C(=O)c3ccccc3N(C)[C@H]21 | 38.4 | > 50 | 
CN1c2ccc(Cl)cc2C(=O)N2CCc3c([nH]c4ccccc34)[C@H]21 | 1.32 | 1.03 | 
O=C1c2ccccc2N(Cc2ccccc2)[C@@H]2c3[nH]c4ccccc4c3CCN12 | > 50 | > 50 | 
CN1c2ccccc2C(=O)N2CCc3c([nH]c4ccc(OC(=O)c5ccccc5)cc34)[C@H]21 | 0.75 | > 50 | IC50 at 72 h [3]: 0.14 µM; IC50 [4]: 0.13 µM; inhibition [5]: inactive
CCCN1c2ccccc2C(=O)N2CCc3c([nH]c4ccccc34)[C@H]21 | < 0.4 | < 0.4 | 
COc1ccc2[nH]c3c(c2c1)CCN1C(=O)c2ccccc2N(C)[C@H]31 | 11.1 | 10.8 | 
Cc1ccc(Cn2c3c(c4ccccc42)CCN2C(=O)c4ccccc4N(C)[C@H]32)cc1 | > 50 | > 50 | 
COc1ccc2c(c1)N(C)[C@@H]1c3[nH]c4ccccc4c3CCN1C2=O | 31.6 | 3.6 | 
CN1c2ccccc2C(=O)N2CCc3c([nH]c4c([N+](=O)[O-])cc([N+](=O)[O-])cc34)[C@H]21 | 0.93 | > 50 | IC50 at 72 h [3]: 0.08 µM; IC50 [4]: 1.31 µM; inhibition [5]: inactive
C#CCOc1ccc2[nH]c3c(c2c1)CCN1C(=O)c2ccccc2N(C)[C@H]31 | 4 | > 50 | 
Cc1ccc2c(c1)C(=O)N1CCc3c([nH]c4ccccc34)[C@H]1N2C | 2.02 | 7.36 | 
CC(=O)Oc1ccc2[nH]c3c(c2c1)CCN1C(=O)c2cccc(C)c2N(C)[C@H]31 | < 0.4 | < 0.4 | 
Cc1cccc2c1N(C)[C@@H]1c3[nH]c4ccccc4c3CCN1C2=O | < 0.4 | < 0.4 | 
Cc1ccc(CN2c3ccccc3C(=O)N3CCc4c([nH]c5ccccc45)[C@H]32)cc1 | 11.3 | > 50 | 
CN1c2ccccc2C(=O)N2CCc3c([nH]c4ccc(OCc5ccccc5)cc34)[C@H]21 | 10.7 | > 50 | 
CN1c2ccc(Br)cc2C(=O)N2CCc3c([nH]c4ccccc34)[C@H]21 | 2.25 | 3.06 | 
CCCCCCn1c2c(c3ccccc31)CCN1C(=O)c3ccccc3N(C)[C@H]21 | 13.7 | 37.6 | 
CC(=O)Oc1ccc2[nH]c3c(c2c1)CCN1C(=O)c2cc(F)ccc2N(C)[C@H]31 | < 0.4 | < 0.4 | 
Nc1ccn([C@@H]2O[C@H](CO)[C@@H](O)C2(F)F)c(=O)n1 [GEMCITABINE] | 1.25 |  | IC50 at 72 h [3]: 0.04 µM; IC50 [4]: 64.5 µM; Ratio IC50 [7]: 51.61; Activity (PANC-1 [8]): inactive; Activity (PANC-1 [9]): Active; Activity [10]: 72.15%; Activity [11]: inactive
CN1c2ccccc2C(=O)N2CCc3c(n(Cc4ccccc4)c4ccccc34)[C@H]21 | 6.88 | 33.7 | 
CN1c2ccccc2C(=O)N2CCc3c([nH]c4ccc(F)cc34)[C@H]21 | 9.32 | 4.71 | 
